For data set [1], the target named is Proteinase-activated receptor 2 (Homo sapiens) (UniProt P55085). The experiment in a line: Antagonist activity at protease-activated receptor 2 (unknown origin) expressed in CHO-K1 cells assessed as inhibition of trypsin-induced calcium flux at 10 uM by FLIPR assay. The format is functional, cell-based.
For data set [2], the system named is RAW264.7. The experiment in a line: Antiinflammatory activity in mouse RAW264.7 cells assessed as inhibition of LPS-induced PGE2 production at 3 uM for 1 hr followed by stimulation with LPS for 24 hrs […]. The class given is functional, cell-based.
In data set [3] the target is T1, Proteinase-activated receptor 2 (Homo sapiens, UniProt P55085).
T1 sequence (P55085 whole entry): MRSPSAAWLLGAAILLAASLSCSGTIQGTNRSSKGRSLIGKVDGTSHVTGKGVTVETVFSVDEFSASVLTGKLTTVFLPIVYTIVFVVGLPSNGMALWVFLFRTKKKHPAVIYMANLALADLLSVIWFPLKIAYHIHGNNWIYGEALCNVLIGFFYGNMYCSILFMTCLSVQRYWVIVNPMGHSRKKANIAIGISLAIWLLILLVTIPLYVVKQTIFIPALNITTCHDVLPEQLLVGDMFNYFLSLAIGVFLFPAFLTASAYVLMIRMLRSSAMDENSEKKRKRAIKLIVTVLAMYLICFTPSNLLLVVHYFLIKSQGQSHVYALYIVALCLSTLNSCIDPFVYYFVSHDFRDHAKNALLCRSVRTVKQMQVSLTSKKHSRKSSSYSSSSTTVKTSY
The experiment in a line: Antagonist activity at protease-activated receptor 2 (unknown origin) expressed in CHO-K1 cells assessed as inhibition of trypsin-induced calcium flux by FLIPR assay. The format is functional, cell-based.

In data set [4] the target is Proteinase-activated receptor 2 (Homo sapiens) (UniProt P55085). Nature of the data set: Antagonist activity at trypsin-induced protease-activated receptor 2 activation (unknown origin) expressed in CHO-K1 cells assessed as receptor internalization at 30 uM after 1 hr by immuno-fluorescence assay (reference value: 28%). The format is cell-based. Also noted: scale not given: the % may be the effect or the level left.

In data set [5] the target is T1, Proteinase-activated receptor 2. Nature of the data set: Antagonist activity at protease-activated receptor 2 (unknown origin).
Data set [6] concerns RAW264.7. The experiment in a line: Cytotoxicity against mouse RAW264.7 cells assessed as cell viability at 3.125 to 200 uM after 24 hrs by MTT assay. The class given is cell-based. The conditions noted are these: raw264.7, 24 h. On the technique in general: Formazan colour is commonly taken as a measure of viable cells.
Data set [7] concerns RAW264.7. The experiment in a line: Antiinflammatory activity in mouse RAW264.7 cells assessed as inhibition of LPS-induced NO production at 5 to 50 uM for 1 hr followed by stimulation with LPS for 24 hrs by Griess reaction. The class given is functional, cell-based. On the technique in general: Griess reagent forms a coloured azo dye with nitrite.
The subject of data set [8] is RAW264.7. The experiment in a line: Antiinflammatory activity in mouse RAW264.7 cells assessed as inhibition of LPS-induced iNOS expression compound pretreated for 1 hr followed by stimulation with LPS for 24 hrs by Western blot analysis. The format is functional, cell-based. Background: A western blot detects proteins with antibodies after separation by electrophoresis.

Data set [9] has as its system RAW264.7. Nature of the data set: Antiinflammatory activity in mouse RAW264.7 cells assessed as inhibition of LPS-induced PGE2 production at 5 to 50 uM for 1 hr followed by stimulation with LPS for 24 hrs […]. The format is functional, cell-based.
In data set [10] the test system is RAW264.7. The experiment in a line: Antiinflammatory activity in mouse RAW264.7 cells assessed as inhibition of LPS-induced COX2 expression at 5 to 50 uM for 1 hr followed by stimulation with LPS for 24 hrs by Western blot analysis. The format is functional, cell-based.
In data set [11] the test system is RAW264.7. Nature of the data set: Antiinflammatory activity in mouse RAW264.7 cells assessed as inhibition of LPS-induced COX2 mRNA expression at 5 to 50 uM for 1 hr followed by stimulation with LPS for 4 hrs QT-PCR analysis. The format is functional, cell-based.
Data set [12] deals with RAW264.7. The experiment in a line: Antiinflammatory activity in mouse RAW264.7 cells assessed as inhibition of LPS-induced IL-1beta expression compound pretreated for 1 hr followed by stimulation with LPS for 24 hrs by EIA. The format is functional, cell-based.
The test system of data set [13] is RAW264.7. The experiment in a line: Antiinflammatory activity in mouse RAW264.7 cells assessed as inhibition of LPS-induced IL-6 expression compound pretreated for 1 hr followed by stimulation with LPS for 24 hrs by EIA. The format is functional, cell-based.
The test system of data set [14] is RAW264.7. Nature of the data set: Antiinflammatory activity in mouse RAW264.7 cells assessed as inhibition of LPS-induced TNFalpha expression compound pretreated for 1 hr followed by stimulation with LPS for 24 hrs by EIA. The format is functional, cell-based.
The target of data set [15] is T2, Proteinase-activated receptor 2 (Mus musculus) (UniProt P55086).
T2 sequence (whole entry): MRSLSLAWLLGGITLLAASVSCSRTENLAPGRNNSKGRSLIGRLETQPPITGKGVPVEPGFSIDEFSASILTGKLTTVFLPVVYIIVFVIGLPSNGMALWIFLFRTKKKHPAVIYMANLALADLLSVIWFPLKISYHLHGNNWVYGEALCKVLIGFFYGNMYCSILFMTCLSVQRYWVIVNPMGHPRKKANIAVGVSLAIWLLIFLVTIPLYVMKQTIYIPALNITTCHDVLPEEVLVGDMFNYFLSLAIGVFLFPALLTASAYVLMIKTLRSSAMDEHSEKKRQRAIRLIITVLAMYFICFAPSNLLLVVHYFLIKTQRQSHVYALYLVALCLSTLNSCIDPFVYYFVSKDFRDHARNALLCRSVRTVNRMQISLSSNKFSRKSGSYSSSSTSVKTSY
The experiment in a line: Antagonist activity at protease-activated receptor 2 in LPS-stimulated mouse RAW264.7 cells assessed as inhibition of NF-kappaB activation compound pretreated for 1 hr followed by stimulation with LPS for 8 hrs by luciferase reporter gene assay. The format is cell-based.

The target of data set [16] is T2, Proteinase-activated receptor 2 (Mus musculus). The experiment in a line: Antagonist activity at protease-activated receptor 2 in LPS-stimulated mouse RAW264.7 cells assessed as inhibition of AP-1 activation compound pretreated for 1 hr followed by stimulation with LPS for 8 hrs by luciferase reporter gene assay. The format is cell-based.
Data set [17] concerns RAW264.7. Nature of the data set: Inhibition of LPS-induced Erk phosphorylation in mouse RAW264.7 cells at 5 to 50 uM for 1 hr followed by stimulation with LPS for 5,10 or 15 mins by western blot analysis. The format is cell-based.
For data set [18], the target named is MAP kinase p38 (Mus musculus) (UniProt P47811+O08911+Q9WUI1+Q9Z1B7). The experiment in a line: Inhibition of LPS-induced p38 phosphorylation in mouse RAW264.7 cells at 5 to 50 uM for 1 hr followed by stimulation with LPS for 5,10 or 15 mins by western blot analysis. The format is cell-based.
Data set [19] has as its system RAW264.7. The experiment in a line: Inhibition of LPS-induced JNK phosphorylation in mouse RAW264.7 cells at 5 to 50 uM for 1 hr followed by stimulation with LPS for 5,10 or 15 mins by western blot analysis. The format is cell-based.
Data set [20] has as its system Mus musculus. Nature of the data set: Antiinflammatory activity in C57BL/6 mouse assessed as reduction of LPS-induced sepsis at 7.5 mg/kg, po administered 1 hr before LPS challenge measured up to 60 hrs. The format is functional. More on the design: scale not given: the % may be the effect or the level left.
The test system of data set [21] is Mus musculus. Nature of the data set: Antiinflammatory activity in C57BL/6 mouse assessed as reduction of LPS-induced sepsis at 15 mg/kg, po administered 1 hr before LPS challenge measured up to 60 hrs. The format is functional. More on the design: scale not given: the % may be the effect or the level left.
Data set [22] relates to Mus musculus. The experiment in a line: Antiinflammatory activity in C57BL/6 mouse assessed as reduction of LPS-induced sepsis at 30 mg/kg, po administered 1 hr before LPS challenge measured up to 60 hrs. The class given is functional. Also noted: scale not given: the % may be the effect or the level left.
The test system of data set [23] is RAW264.7. The experiment in a line: Antiinflammatory activity in mouse RAW264.7 cells assessed as inhibition of LPS-induced iNOS mRNA level compound pretreated for 1 hr followed by stimulation with LPS for 24 hrs by qRT-PCR analysis. The format is functional, cell-based.
Data set [24] deals with T1, Proteinase-activated receptor 2. Nature of the data set: Displacement of [3H]furoyl-LIGRL-NH2 from human protease-activated receptor 2 in NCTC-2544 cells. The format is cell-based.

Calls of active or inactive are those of the source. The calls are words filed in the database; no cut-off is given here. Where only a bound is given, the exact number is not on record here.

As to `COc1ccc2nc(Oc3ccc(Cl)c(Cl)c3)nc(NCc3ccco3)c2c1`, the inhibition (usually how much of the control response was suppressed) in data set [1] was “inactive”.

For the molecule `CS(=O)(=O)Nc1ccc([N+](=O)[O-])cc1OC1CCCCC1`, in the data set on RAW264.7 [2], the inhibition result is “Active”.

For the molecule `Cc1ccc(CNc2nc(Oc3ccc(Cl)c(Cl)c3)nc3ccc(F)cc23)o1`, in data set [1], the inhibition result is “inactive”.

For `Clc1cc(Cl)cc(COc2nc(NCc3ccco3)c3ccccc3n2)c1`, the inhibition result in data set [1] was “inactive”.

In the case of `Cc1ccoc1CNc1nc(Oc2ccc(Cl)cc2Cl)nc2ccccc12`, the inhibition result in [1] is “inactive”.

On to `COc1ccc(Oc2nc(NCc3occc3C)c3ccccc3n2)cc1`, for which, in [1], the inhibition worked out at 23.1%.

As for `Cc1ccoc1CNc1nc(Oc2cccc(Cl)c2)nc2ccccc12`, in [1], the inhibition result is “inactive”.

As to `Cc1ccc(CNc2nc(Oc3ccc(Cl)cc3Cl)nc3ccc(Cl)cc23)o1`, in data set [1], the inhibition result was “inactive”.

As to `CCCCCNc1nc(NCc2ccco2)c2cc(F)ccc2n1`, the inhibition in data set [1] is 73.2%. Also, the concentration for half-maximal inhibition (IC50) (commonly the concentration needed to halve the response being measured) in data set [3] came to 690 nM.

On to `Cc1ccc(CNc2nc(Oc3cc(Cl)cc(Cl)c3)nc3ccc(F)cc23)o1`, for which the inhibition in data set [1] is below 10%. Further, in data set [4], the Activity came out at 24%.

On to `CC[C@H](C)[C@H](NC(=O)[C@H](CC1CCCCC1)NC(=O)c1ccno1)C(=O)N1CCC2(C=Cc3ccccc32)CC1`, for which, in data set [5], the midpoint of inhibition, the IC50, lay at 2000 nM.

As to `COc1ccc2nc(Oc3cc(Cl)cc(Cl)c3)nc(NCc3ccco3)c2c1`, the inhibition entry in data set [1] was “inactive”.

Consider `Cc1ccoc1CNc1nc(Oc2cc(Cl)cc(Cl)c2)nc2ccc(F)cc12`, for which the inhibition is 47.7% in data set [1]; “Dose-dependent effect” in the data set on RAW264.7 [8]; “Dose-dependent effect” in the data set on RAW264.7 [12]; “Dose-dependent effect” in the data set on RAW264.7 [13]; “Dose-dependent effect” in the data set on RAW264.7 [14]; “Dose-dependent effect” in data set [15]. Besides, the inhibition entry (in data set [16]; in the data set on RAW264.7 [23]) was “Dose-dependent effect” in each case. Moreover, the IC50 in data set [3] came out at 2800 nM. Moreover, the Activity result in the data set on RAW264.7 [6] is “Non-toxic”; in data set [4], 12%; in the data set on Mus musculus [20], 80%; with Mus musculus [21] it was 60%; in the data set on Mus musculus [22], 20%. For the same molecule, the inhibition result in the data set on RAW264.7 [7], with RAW264.7 [9], in the data set with RAW264.7 [10], with RAW264.7 [11] and in the data set on RAW264.7 [17] was “Active” each time. Also, the inhibition entry (in data set [18]; in the data set with RAW264.7 [19]) was “inactive” throughout.

`NCC[C@H](NC(=O)CNC(=O)Nc1ccc2c(c1)c(CN1CCCC1)cn2Cc1c(Cl)cccc1Cl)C(=O)N[C@H](Cc1ccccc1)C(=O)Nc1ccccc1`: affinity in data set [24] was put at a Ki of 1940 nM.

For the molecule `COc1ccc2nc(Oc3cccc(Cl)c3)nc(NCc3ccco3)c2c1`, the inhibition entry in data set [1] was “inactive”.

Consider `NCCCC[C@H](NC(=O)CNC(=O)Nc1ccc2c(c1)c(CN1CCCC1)cn2Cc1c(Cl)cccc1Cl)C(=O)N[C@H](Cc1ccccc1)C(=O)NC(c1ccccc1)c1ccccc1`, for which, in data set [24], affinity was put at a Ki of 627 nM.

`Clc1ccc(COc2nc(NCc3ccco3)c3ccccc3n2)c(Cl)c1`: the inhibition in [1] turned out to be 16.5%.

`Clc1ccc(Oc2nc(NCc3ccco3)c3ccccc3n2)cc1Cl`: the inhibition result in [1] is “inactive”.

On to `Cc1ccoc1CNc1nc(Oc2ccc(Cl)c(Cl)c2)nc2ccc(F)cc12`, for which, in [1], the inhibition is below 10%.

In the case of `COc1ccc2nc(Oc3ccc(Cl)cc3Cl)nc(NCc3occc3C)c2c1`, the inhibition in data set [1] amounted to 33.1%. Moreover, the concentration for half-maximal inhibition (IC50) in data set [3] was above 10000 nM.

Take `Clc1ccc(Oc2nc(NCc3ccco3)c3cc(Cl)ccc3n2)c(Cl)c1`: in data set [1], the inhibition was below 10%.
